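In this assay, cells in 96-well plates receive the compound at five concentrations for 48 hours. Endpoints are linearly interpolated between the surrounding concentrations. Abbreviation: GI50, concentration required for 50% inhibition of growth.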 The source made the active and inactive calls. Cut-off read from the data, not from the text of the source: active = GI50 up to about 1.1 µM and inactive = higher.
Legend:
Assay in all cases: NCI-60 cell line screen, 48 h
BT-549 = test system: BT-549
COLO 205 = test system: COLO 205
HCT-15 = test system: HCT-15
IGROV-1 = test system: IGROV-1
K562 = test system: K562
KM12 = test system: KM12
M14 = test system: M14
MDA-N = test system: MDA-N
NCI-H522 = test system: NCI-H522
OVCAR-3 = test system: OVCAR-3
PC-3 = test system: PC-3
SF-295 = test system: SF-295
SK-MEL-2 = test system: SK-MEL-2
SNB-19 = test system: SNB-19
SR = test system: SR
T47D = test system: T47D
UACC-62 = test system: UACC-62
OVCAR-5 = test system: OVCAR-5
TK-10 = test system: TK-10

| Compound | GI50 (BT-549) | GI50 (COLO 205) | GI50 (HCT-15) | GI50 (IGROV-1) | GI50 (K562) | GI50 (KM12) | GI50 (M14) | GI50 (MDA-N) | GI50 (NCI-H522) | GI50 (OVCAR-3) | GI50 (PC-3) | GI50 (SF-295) | GI50 (SK-MEL-2) | GI50 (SNB-19) | GI50 (SR) | GI50 (T47D) | GI50 (UACC-62) | GI50 (OVCAR-5) | GI50 (TK-10) |
| --- | --- | --- | --- | --- | --- | --- | --- | --- | --- | --- | --- | --- | --- | --- | --- | --- | --- | --- | --- |
| CC(=O)Nc1ccc(-c2nc3ccccc3s2)cc1I | 25.5 µM (inactive) | 89.3 µM (inactive) | > 83.4 µM | 0.0184 µM (active) | > 58.1 µM (inactive) | 54 µM (inactive) | 36.8 µM (inactive) | > 100 µM (inactive) | 42.2 µM (inactive) | 11.7 µM (inactive) | 41.6 µM (inactive) | 29.4 µM (inactive) | 50.4 µM (inactive) | 24.3 µM (inactive) | > 100 µM (inactive) | 1.85 µM (inactive) | 22.6 µM (inactive) | – | – |
| COc1cccc(Nc2n[nH]c(NS(=O)(=O)c3cc(C)c(Cl)cc3S)n2)c1 | > 100 µM (inactive) | > 100 µM (inactive) | > 100 µM | > 100 µM (inactive) | > 100 µM (inactive) | > 100 µM (inactive) | > 100 µM (inactive) | > 100 µM (inactive) | > 100 µM (inactive) | > 100 µM (inactive) | > 100 µM (inactive) | > 100 µM (inactive) | > 100 µM (inactive) | > 100 µM (inactive) | > 100 µM (inactive) | > 100 µM (inactive) | > 100 µM (inactive) | > 100 µM (inactive) | > 100 µM (inactive) |
| Cc1ccc(/C(C#N)=C/c2cccc([N+](=O)[O-])c2)cc1 | > 100 µM (inactive) | > 100 µM (inactive) | > 100 µM | 80.5 µM (inactive) | > 100 µM (inactive) | > 100 µM (inactive) | > 100 µM (inactive) | > 100 µM (inactive) | > 100 µM (inactive) | > 100 µM (inactive) | > 100 µM (inactive) | 24.4 µM (inactive) | 51.9 µM (inactive) | 43.8 µM (inactive) | > 100 µM (inactive) | > 100 µM (inactive) | 71.1 µM (inactive) | > 100 µM (inactive) | 92.5 µM (inactive) |
| CC(CCC(=O)O)(c1ccc(O)cc1)c1ccc(O)cc1 | > 100 µM (inactive) | – | > 100 µM | > 100 µM (inactive) | > 100 µM (inactive) | > 100 µM (inactive) | > 100 µM (inactive) | > 100 µM (inactive) | > 100 µM (inactive) | > 100 µM (inactive) | > 100 µM (inactive) | > 100 µM (inactive) | > 100 µM (inactive) | > 100 µM (inactive) | > 100 µM (inactive) | > 100 µM (inactive) | > 100 µM (inactive) | > 100 µM (inactive) | > 100 µM (inactive) |
| COc1ccc(N2C(=O)C3c4[nH]c5ccc(OCc6ccccc6)cc5c4C4CCC(C(C)C)CC4C3C2=O)cc1 (stereo not given) | 28.6 µM (inactive) | > 100 µM (inactive) | > 100 µM | > 39.6 µM (inactive) | 16.7 µM (inactive) | > 100 µM (inactive) | > 48.6 µM (inactive) | > 100 µM (inactive) | 12.3 µM (inactive) | > 58.5 µM (inactive) | > 89.9 µM (inactive) | 6.4 µM (inactive) | 15.2 µM (inactive) | 9.33 µM (inactive) | 4.41 µM (inactive) | 33.2 µM (inactive) | 29 µM (inactive) | > 40 µM (inactive) | > 30.3 µM (inactive) |
| OCCCCn1cc(Cn2ncc3c(O)ncnc32)nn1 | > 100 µM (inactive) | > 100 µM (inactive) | > 100 µM | > 100 µM (inactive) | > 100 µM (inactive) | > 100 µM (inactive) | > 100 µM (inactive) | > 100 µM (inactive) | > 100 µM (inactive) | > 100 µM (inactive) | > 100 µM (inactive) | > 100 µM (inactive) | > 100 µM (inactive) | > 100 µM (inactive) | > 100 µM (inactive) | > 100 µM (inactive) | > 100 µM (inactive) | > 100 µM (inactive) | > 100 µM (inactive) |
| O=c1cc(-c2ccccc2)c2ccc(O)c(CN(CCCl)CCCl)c2o1 | 10.6 µM (inactive) | 12.4 µM (inactive) | 22.1 µM | 15.5 µM (inactive) | 29 µM (inactive) | 17.9 µM (inactive) | 20.1 µM (inactive) | 17.6 µM (inactive) | 14.7 µM (inactive) | 19.3 µM (inactive) | 17.8 µM (inactive) | 11 µM (inactive) | 22.8 µM (inactive) | 18.5 µM (inactive) | 11.1 µM (inactive) | 23.4 µM (inactive) | 16.9 µM (inactive) | 17.8 µM (inactive) | – |
| COC(=O)C1CC2C=CC1N(C(=O)OCc1ccccc1)C2 (stereo not given) | > 100 µM (inactive) | > 100 µM (inactive) | > 100 µM | > 100 µM (inactive) | > 100 µM (inactive) | > 100 µM (inactive) | > 100 µM (inactive) | > 100 µM (inactive) | 0.82 µM (active) | > 100 µM (inactive) | > 100 µM (inactive) | > 100 µM (inactive) | > 100 µM (inactive) | > 100 µM (inactive) | 59.3 µM (inactive) | 85.7 µM (inactive) | > 100 µM (inactive) | > 100 µM (inactive) | > 100 µM (inactive) |
| CC(=O)/C(=C(/Br)I)c1ccccc1 | 1.97 µM (inactive) | 13.6 µM (inactive) | 4.32 µM | 10.9 µM (inactive) | 2.82 µM (inactive) | 14.8 µM (inactive) | 6.87 µM (inactive) | 3.45 µM (inactive) | 0.442 µM (active) | 6.49 µM (inactive) | 16.8 µM (inactive) | 15.5 µM (inactive) | 4.82 µM (inactive) | 17.3 µM (inactive) | 1.94 µM (inactive) | 3.48 µM (inactive) | 12.8 µM (inactive) | 18.1 µM (inactive) | 21 µM (inactive) |
| O=C1CC(=O)NC(NN2C(=O)CSC2C(=O)c2ccco2)=N1 (stereo not given) | > 100 µM (inactive) | > 100 µM (inactive) | > 100 µM | > 100 µM (inactive) | > 100 µM (inactive) | 3.05 µM (inactive) | > 100 µM (inactive) | > 100 µM (inactive) | > 100 µM (inactive) | > 100 µM (inactive) | > 100 µM (inactive) | 78.7 µM (inactive) | > 100 µM (inactive) | – | > 100 µM (inactive) | > 100 µM (inactive) | > 100 µM (inactive) | > 100 µM (inactive) | > 100 µM (inactive) |
| CC1=NN(C(=O)c2ccccc2O)C(c2ccccc2Cl)C1C(=O)Nc1ccccc1 (stereo not given) | < 0.0256 µM (active) | 5.26 µM (inactive) | 0.0303 µM | < 0.028 µM (active) | < 0.0235 µM (active) | 0.107 µM (active) | 0.054 µM (active) | < 0.0205 µM (active) | 0.119 µM (active) | 0.143 µM (active) | 1.75 µM (inactive) | 0.0975 µM (active) | 4.74 µM (inactive) | 0.0306 µM (active) | < 0.0322 µM (active) | 0.0435 µM (active) | < 0.0197 µM (active) | 0.458 µM (active) | 3.1 µM (inactive) |
| O=c1cc(/N=N\c2ccc(Br)cc2)[nH]c(=S)[nH]1 | 56.6 µM (inactive) | 21.9 µM (inactive) | 14.9 µM | 53.1 µM (inactive) | 21.7 µM (inactive) | 45.1 µM (inactive) | 15.7 µM (inactive) | 49.5 µM (inactive) | 15.5 µM (inactive) | 15.4 µM (inactive) | 61.1 µM (inactive) | > 100 µM (inactive) | 11.9 µM (inactive) | 61 µM (inactive) | 27.6 µM (inactive) | 17.3 µM (inactive) | 78.3 µM (inactive) | 25.6 µM (inactive) | 17.3 µM (inactive) |
| COC1(OC)C2(Cl)CCC1(Cl)C(OC(C)=O)C2 (stereo not given) | > 100 µM (inactive) | > 100 µM (inactive) | > 100 µM | > 100 µM (inactive) | > 100 µM (inactive) | > 100 µM (inactive) | > 100 µM (inactive) | > 100 µM (inactive) | > 74.1 µM (inactive) | > 100 µM (inactive) | > 100 µM (inactive) | > 100 µM (inactive) | > 100 µM (inactive) | > 100 µM (inactive) | > 100 µM (inactive) | > 100 µM (inactive) | > 90.2 µM (inactive) | > 100 µM (inactive) | > 100 µM (inactive) |
| CC(=C(C(=O)O)C(=O)O)c1cc(-c2cccs2)cc(-c2ccc(Cl)cc2)c1O | 15.7 µM (inactive) | 22.4 µM (inactive) | 14 µM | 15.2 µM (inactive) | 5.3 µM (inactive) | 9.04 µM (inactive) | 17.7 µM (inactive) | 16.3 µM (inactive) | 14.3 µM (inactive) | 14.9 µM (inactive) | 13.6 µM (inactive) | 17.9 µM (inactive) | 32.4 µM (inactive) | 15.7 µM (inactive) | 3.67 µM (inactive) | 6.68 µM (inactive) | 15.3 µM (inactive) | 29.4 µM (inactive) | 16.2 µM (inactive) |
| COc1ccc(OC)c2c(=O)cc(-c3ccccc3)[nH]c12 | > 100 µM (inactive) | > 100 µM (inactive) | > 100 µM | > 100 µM (inactive) | > 100 µM (inactive) | > 100 µM (inactive) | > 100 µM (inactive) | > 100 µM (inactive) | 7.45 µM (inactive) | > 100 µM (inactive) | > 100 µM (inactive) | > 100 µM (inactive) | > 100 µM (inactive) | > 100 µM (inactive) | > 100 µM (inactive) | > 100 µM (inactive) | > 100 µM (inactive) | > 100 µM (inactive) | > 100 µM (inactive) |
